This experiment concerns Plasmodium berghei. Kind of experiment: Luciferase/luciferin-expressing antifolate-resistant parasites were used to infect a culture of HepG2 cells that were pre-incubated with compounds. Infected hepatocytes emit light due to the luciferase reaction. Assay results are presented as the percent inhibition of light emission compared to control. […]. In kind it is functional. Conditions: sporozoite; for IC90: read-out: LUCIFERASE INFECTION ASSAY - IC90.

The mark [1] stands for this setting: read-out: LUCIFERASE INFECTION ASSAY - IC50.

This passage reports IC50 and IC90 results from ChEMBL document CHEMBL4483862, “Open-source discovery of chemical leads for next-generation chemoprotective antimalarials” (2018).

As a reminder, the IC50 is the concentration needed to halve the response being measured. A word on the IC90: it is the concentration needed for an effect of 90%.

SMILES strings stand for the structures.

Take `CCOC(=O)C1=C(C)N(c2ccc(Cl)cc2)C(=O)NC1c1c(F)cccc1Cl` (stereo not given): the concentration for an effect of 90% (IC90) was over 10 µM. Also, the IC50 (FFLUC_HILL_SLOPE 0.633, FFLUC_R_SQUARED 0.184, HEPG2TOX_HILL_SLOPE 1.11, HEPG2TOX_R_SQUARED 0.991, PBLUC_HILL_SLOPE 1.36, PBLUC_R_SQUARED 0.55, read-out: LUCIFERASE INFECTION ASSAY - IC50) was found to be 3.38 µM.

Turning to `CC(C)S(=O)(=O)c1cscc1NC(=O)c1ccc(-c2cc(C(F)(F)F)nn2C)s1`, the IC90 was over 7.12 µM. The IC50 (PBLUC_HILL_SLOPE 12.2, PBLUC_R_SQUARED 0.329, read-out: LUCIFERASE INFECTION ASSAY - IC50) worked out at 6.55 µM.

As for `CC(Oc1ccc(C(=O)NCc2ccnc(N(C)C)c2)cn1)c1ccccc1` (stereo not given), the IC90 was determined as 6.11 µM. Besides, the half-maximal inhibitory concentration (IC50) (PBLUC_HILL_SLOPE 81.7, PBLUC_R_SQUARED 0.538, read-out: LUCIFERASE INFECTION ASSAY - IC50) came to 5.95 µM.

For `COc1cccc(-n2c(=O)c3ccccc3n3c(SCc4cc(=O)n5ccsc5n4)nnc23)c1`, the IC90 is over 10 µM. Besides, under setting [1], the IC50 is over 10 µM.

In the case of `CCC(NCC(O)COc1ccccc1C(C)C)c1ccc(Br)cc1` (stereo not given), the IC90 was over 10 µM. For the same compound, the IC50 (PBLUC_HILL_SLOPE 15.5, PBLUC_R_SQUARED 0.67, read-out: LUCIFERASE INFECTION ASSAY - IC50) came out at 9.4 µM.

For `CCCn1nc(C(=O)Nc2cccc(-c3nc4ccccc4[nH]3)c2)c2ccccc2c1=O`, the IC90 was found to be 4.7 µM. Besides, the IC50 (PBLUC_HILL_SLOPE 9.6, PBLUC_R_SQUARED 0.205, read-out: LUCIFERASE INFECTION ASSAY - IC50) amounted to 3.74 µM.

With `Cc1ccc(NCc2c(Cl)nc3sccn23)c(C)c1`, the 90% effect concentration (IC90) is over 11.3 µM. In addition, the IC50 (HEPG2TOX_HILL_SLOPE 1.69, HEPG2TOX_R_SQUARED 0.916, PBLUC_HILL_SLOPE 2.14, PBLUC_R_SQUARED 0.29, read-out: LUCIFERASE INFECTION ASSAY - IC50) was found to be 10.3 µM.

With `Cc1onc(-c2c(Cl)cccc2Cl)c1-c1nc(-c2cc(-c3ccccc3)c(C(F)(F)F)s2)cs1`, the IC90 was over 6.14 µM. The IC50 (FFLUC_HILL_SLOPE 14.8, FFLUC_R_SQUARED 0.219, HEPG2TOX_HILL_SLOPE 0.104, HEPG2TOX_R_SQUARED 0.184, PBLUC_HILL_SLOPE 1.63, PBLUC_R_SQUARED 0.31, read-out: LUCIFERASE INFECTION ASSAY - IC50) was over 6.14 µM.

In the case of `CSc1sc(C(=O)N/N=C/c2ccccc2Cl)c2c1C(O)CCC2` (stereo not given), the IC90 was over 8.66 µM. In addition, the 50% inhibitory concentration (IC50) (HEPG2TOX_HILL_SLOPE 0.679, HEPG2TOX_R_SQUARED 0.968, PBLUC_HILL_SLOPE 1.34, PBLUC_R_SQUARED 0.516, read-out: LUCIFERASE INFECTION ASSAY - IC50) stood at 2.1 µM.

On to `Cc1c(C(=O)OCC(=O)N(Cc2ccccc2)Cc2ccccc2)sc2nc3n(c(=O)c12)CCC3`, for which the IC90 came to 3.43 µM. Further, the IC50 under setting [1] came to 3.04 µM.

Regarding `CC(OC(=O)CCc1nc2cc(Cl)ccc2n(Cc2ccccc2)c1=O)C(=O)N1CCCC1` (stereo not given), the 90% effect concentration (IC90) turned out to be 5 µM. In addition, the IC50 (PBLUC_HILL_SLOPE 7.3, PBLUC_R_SQUARED 0.693, read-out: LUCIFERASE INFECTION ASSAY - IC50) turned out to be 3.7 µM.

As for `CCCCNC(=O)c1c(NCCC)sc(C(=O)c2ccc(OC)cc2)c1N`, the IC90 was over 10 µM. The IC50 (PBLUC_HILL_SLOPE 4.7, PBLUC_R_SQUARED 0.148, read-out: LUCIFERASE INFECTION ASSAY - IC50) is 8.99 µM.

For `CN(C)CCOCCOc1c(Cl)cc(Cl)cc1Cl`, the IC90 is over 10 µM. In addition, under setting [1], the IC50 was over 10 µM.

Regarding `N#C/C(=C\c1sc(N2CCCCC2)nc1-c1ccccc1)c1nnc2n1CCCCC2`, the IC90 is over 10 µM. In addition, under setting [1], the IC50 was over 10 µM.

`CCc1c(C(=O)NCC2CCS(=O)(=O)C2)cnn1-c1ccc(C)cc1` (stereo not given): the IC90 is over 10 µM. Besides, the IC50 (PBLUC_HILL_SLOPE 12.8, PBLUC_R_SQUARED 0.197, read-out: LUCIFERASE INFECTION ASSAY - IC50) is over 10 µM.

On to `Cc1cccc(N2CCN(C(=O)c3cccc(S(=O)(=O)N4CCc5ccccc5C4)c3)CC2C)c1` (stereo not given), for which the IC90 is over 10 µM. In addition, the IC50 (HEPG2TOX_HILL_SLOPE 1.53, HEPG2TOX_R_SQUARED 0.865, read-out: LUCIFERASE INFECTION ASSAY - IC50) is over 10 µM.

With `CCOc1ccc(S(=O)(=O)CC2=NCCc3cc(OC)c(OC)cc32)cc1`, the IC90 was determined as 5.39 µM. Further, the IC50 (HEPG2TOX_HILL_SLOPE 1.55, HEPG2TOX_R_SQUARED 0.854, PBLUC_HILL_SLOPE 1.98, PBLUC_R_SQUARED 0.428, read-out: LUCIFERASE INFECTION ASSAY - IC50) stood at 1.78 µM.

Take `CCCn1c(C)cc(/C=C(\C#N)C(=O)OCC(=O)Nc2sc(C)c(-c3ccc(C)cc3)c2C(=O)OCC)c1C`: the IC90 was over 10 µM. In addition, where the note is “PBLUC_HILL_SLOPE 0.191, PBLUC_R_SQUARED 0.0121, read-out: LUCIFERASE INFECTION ASSAY - IC50”, the IC50 is over 10 µM.

Consider `N#Cc1ccc(Cl)cc1/N=C/C(Br)=C/c1ccccc1`, for which the IC90 is over 10 µM. In addition, the IC50 under setting [1] is over 10 µM.

As to `CCOc1cc(/C=C/C(=O)c2ccc3c(c2)OCCO3)cc(Br)c1OCC(=O)N(C)C`, the IC90 is 9.9 µM. Also, the IC50 (PBLUC_HILL_SLOPE 4.45, PBLUC_R_SQUARED 0.571, read-out: LUCIFERASE INFECTION ASSAY - IC50) amounted to 6.04 µM.

For the compound `O=c1c2sccc2ncn1Cc1cc(-c2cccs2)on1`, the IC90 was over 10 µM. The IC50 under setting [1] is over 10 µM.

For `Clc1ccc2c(Sc3nnc4ccccn34)ccnc2c1`, the IC90 was over 10 µM. In addition, under setting [1], the 50% inhibitory concentration (IC50) was over 10 µM.

As for `CN(C(=O)CN1CCc2ccccc2C1)C1(C#N)CCCCC1`, the IC90 was over 10 µM. In addition, the IC50 under setting [1] is over 10 µM.

In the case of `Cc1cccc(C)c1OC(=O)c1cn(Cc2ccccc2)nc1-c1cccnc1`, the 90% effect concentration (IC90) is over 10 µM. The IC50 (HEPG2TOX_HILL_SLOPE 0.808, HEPG2TOX_R_SQUARED 0.825, read-out: LUCIFERASE INFECTION ASSAY - IC50) was over 10 µM.

With `COc1ccc(-c2ccc3ncc(-c4ccoc4)n3n2)cc1OC`, the IC90 is over 10 µM. Further, the IC50 (PBLUC_HILL_SLOPE 16.2, PBLUC_R_SQUARED 0.0483, read-out: LUCIFERASE INFECTION ASSAY - IC50) is over 10 µM.

Consider `CC(C)(C)c1cc(C(=O)NNC(=O)c2ccc(C(F)(F)F)cc2)n(Cc2ccccc2)n1`, for which the IC90 is over 7.42 µM. Besides, under setting [1], the IC50 is over 7.42 µM.

`NC(CCc1ccccc1)c1csc(Nc2ccc(C(F)(F)F)cn2)n1` (stereo not given): the IC90 was found to be 4.5 µM. Moreover, the IC50 (PBLUC_HILL_SLOPE 84.8, PBLUC_R_SQUARED 0.093, read-out: LUCIFERASE INFECTION ASSAY - IC50) worked out at 4.38 µM.

Consider `COc1ccc(C2CCCCCN2C(=O)CCc2c(C)[nH]c(-c3ccccc3)nc2=O)cc1` (stereo not given), for which the IC90 turned out to be 3.45 µM. Besides, the IC50 (PBLUC_HILL_SLOPE 57.7, PBLUC_R_SQUARED 0.487, read-out: LUCIFERASE INFECTION ASSAY - IC50) came out at 3.32 µM.

Consider `CC(=O)N(/N=C/c1ccc(F)cc1)C1=NN(C(C)=O)C(c2ccc(F)cc2)S1` (stereo not given), for which the IC90 was over 8.2 µM. Moreover, the IC50 (HEPG2TOX_HILL_SLOPE 7.43, HEPG2TOX_R_SQUARED 0.382, read-out: LUCIFERASE INFECTION ASSAY - IC50) is over 8.2 µM.

On to `CCn1cc(CN(C)C(=O)c2sc3cccc(Cl)c3c2Cl)c(C)n1`, for which the IC90 is over 8.63 µM. In addition, the IC50 under setting [1] was over 8.63 µM.

For `O=C(Cn1c(=O)oc2ccccc21)N1CCCC1c1nc2ccccc2s1` (stereo not given), the IC90 is over 10 µM. For the setting “PBLUC_HILL_SLOPE 7.81, PBLUC_R_SQUARED 0.364, read-out: LUCIFERASE INFECTION ASSAY - IC50”, the IC50 was determined as 8.38 µM.

On to `Cc1ccc(-c2noc(CCCN3CCN(C(=O)Cn4cnc5c(C)cccc5c4=O)CC3)n2)cc1`, for which the IC90 was over 10 µM. Besides, under setting [1], the IC50 was over 10 µM.

As for `Cc1cccn2cc(CN3CCC(c4nc5ccccc5s4)CC3)nc12`, the IC90 turned out to be 3.59 µM. The IC50 (PBLUC_HILL_SLOPE 8.96, 1.52, PBLUC_R_SQUARED 0.442, 0.954, read-out: LUCIFERASE INFECTION ASSAY - IC50) was 2.59 µM.

For the compound `COc1ccccc1C1CCN(c2ccc([N+](=O)[O-])c(C(F)(F)F)c2)CC1`, the concentration for an effect of 90% (IC90) was over 8.68 µM. Also, the IC50 under setting [1] is over 8.68 µM.

For `O=C(Cn1ncc(Cl)c(Cl)c1=O)Nc1ccc(OCc2ccccc2)cc1`, the IC90 is over 10 µM. The IC50 under setting [1] was over 10 µM.

`O=C(CSc1nnc(-c2ccncc2)[nH]1)NC1CCCc2ccccc21` (stereo not given): the IC90 was over 10 µM. Further, the IC50 under setting [1] was over 10 µM.

For the compound `COc1ccc(-c2nnc(SCc3csc(-c4ccccc4)n3)n2CCc2ccccc2)cc1`, the concentration for an effect of 90% (IC90) is over 10 µM. Also, the IC50 (FFLUC_HILL_SLOPE 7.96, FFLUC_R_SQUARED 0.134, read-out: LUCIFERASE INFECTION ASSAY - IC50) is over 10 µM.

In the case of `CCOC(=O)c1c(NC(=O)CSc2nnc3n(-c4c(C)cccc4C)c(=O)c4ccccc4n23)sc(C(C)=O)c1C`, the IC90 came to 5.29 µM. The IC50 (FFLUC_HILL_SLOPE 2.66, FFLUC_R_SQUARED 0.447, PBLUC_HILL_SLOPE 3.22, PBLUC_R_SQUARED 0.684, read-out: LUCIFERASE INFECTION ASSAY - IC50) came to 2.67 µM.

`CCOC(=O)/C(=C\c1cccc(Br)c1)C1=Nn2c(nnc2-c2ccc(OC)cc2)SC1`: the 90% effect concentration (IC90) was over 10 µM. Besides, the IC50 under setting [1] is over 10 µM.

Consider `O=C(N1CCC(C(c2ccccc2)c2ccccc2)CC1)C(Cl)(Cl)Cl`, for which the IC90 is over 8.32 µM. Besides, where the note is “FFLUC_HILL_SLOPE 23.3, FFLUC_R_SQUARED 0.47, HEPG2TOX_HILL_SLOPE 6.45, HEPG2TOX_R_SQUARED 0.799, read-out: LUCIFERASE INFECTION ASSAY - IC50”, the half-maximal inhibitory concentration (IC50) is over 8.32 µM.
